Results reported in patent US20180312493A1, “Antibiotic Compounds, Pharmaceutical Formulations Thereof And Methods And Uses Therefor” (Simon Fraser University, priority 2015, published 2018).
≈ marks a conversion by molar mass, not a printed value.

Columns and labels:
S. aureus (ATCC29213) = assay: In vitro susceptibility, broth microdilution (MIC); format: cell-based; details: Staphylococcus aureus; S. aureus ATCC29213; 18-24 h, 37 C; read-out: Antimicrobial activity (MIC) S. aureus ATCC29213
Description: Epidemic methicillin resistant S. aureus (MRSA) strain sequenced at the Sanger Centre (MRSA252, NRS71) was obtained from NARSA (Network on Antimicrobial Resistance in S. aureus). Methicillin sensitive S. aureus (ATCC 29213 and 25923), methicillin resistant S. aureus (ATCC BAA-1762), and Salmonella typhimurium (ATCC BAA-185) were obtained from ATCC, The Global Bioresource Center. Acinetobacter baumannii (ATCC 19606 and ATCC 17978), Klebsiella pneumonia (C238), vancomycin resistant Enterococci #2 (2010A) (VRE#2), MRSA (USA400, MW2) and Pseudomonas aeruginosa (PA0-1) were obtained from the laboratory of Dr B. B. Finlay at the University of British Columbia (Vancouver, Canada).
The antimicrobial activities of PK inhibitor candidates were determined using the 96-well microtiter standard 2-fold serial broth microdilution method as described by CLSI (formerly NCCLS) with the various gram-positive and gram-negative bacteria species mentioned above. Bacteria from a single colony were grown, overnight in either BHI Broth (VRE), mueller hinton broth (S. aureus 29213; MRSA USA400, A. baumannii 19606, MRSA BAA-1762) or L-broth (P. aeruginosa, S. typhimurium, K. pneumonia and A. baumannii 17978). […] Culture plates were incubated for 18-24 h at 37° C., and optical density at 600 nm (OD600) was measured using a Benchmark Plus™ microplate spectrophotometer (Bio-Rad™). The absorbance control values for the series containing CAMHB and inhibitor were subtracted as background from the corresponding infected wells. Minimal inhibitory concentration (MIC) was defined as the lowest concentration of test compound leading to complete inhibition of cell growth in relation to compound-free control wells as determined by optical density. Vancomycin, methicillin and ciprofloxicin were used as reference compounds. All assays were run in triplicate or duplicate. Experiments were replicated at least twice to verify reproducibility using the above conditions.

MRSA Pyk = molecular target: T1, MRSA Pyk (Staphylococcus aureus, UniProt Q6GG09); assay: MRSA pyruvate kinase (PK) activity, continuous LDH-coupled assay; format: biochemical, methicillin resistant S. aureus (MRSA252)
T1 construct: made in house; host or cells: E. coli BL-21 (DE3)
Description: Genomic DNA of MRSA strain Sanger 252 extracted using DNeasy Tissue Kit™ (Qiagen™) was used as a template to generate the His-tagged MRSA PK. Human cDNA from MCF-7 breast cancer cell line (courtesy of Dr. J Wong, BC Cancer Research Center (Vancouver, Canada)) was used as a template to generate the full-length human M2 PK enzyme. The following primer sets were used creating appropriate restriction sites (NdeI and XhoI sites underlined): For cloning of MRSA PK: M27F 5′-[…]-3′ and M27R 5′-[…]-3′, for cloning of human M2 PK isoform: hM2F 5′-[…]-3′ and hM2R 5′-[…]-3′. The resulting PCR fragments for each construct were cloned into the NdeI and XhoI unique sites of the bacterial expression vector pET-28a (+) (Novagen™). […] The sequence and the correct reading frame of all constructs were verified by sequencing. Human M1, R and L PK constructs in pET-28-a(+) vectors (courtesy of Dr. L. Cantley, Harvard Medical, School (Boston, USA)) were used to generate relevant recombinant His-tagged human PK isoforms.
MRSA and human constructs in pET-28a(+) were used to express relevant recombinant PK proteins in E. coli BL-21 (DE3). The proteins were expressed and purified using Ni-NTA agarose (Qiagen™) according to the manufacturer's protocol. Briefly, cells were grown to an absorbance of 0.4-0.5 at 600 nm in 2×YT medium, then induced with 0.1 mM IPTG for 3 h at 20° C. Cells were lysed by sonication on ice (3×10-s bursts with a 30-s recovery between bursts) in lysis buffer (0.2 mg/ml lysozyme, 50 mM Tris pH 7.5, 10 mM MgCl2, 200 mM NaCl, 100 mM KCl, 10% glycerol, 10 mM imidazole, 0.5% NP-40 and 1 mM DTT containing Complete™ protease inhibitor). Cell lysates were cleared by centrifugation (18,000×g in a Beckman™ JA-20 rotor) for 20 min at 4° C. and PK isoforms were purified by batch binding to Ni-NTA resin. The resins were then packed in columns (1×2 cm) and washed with 400 column volumes lysis buffer containing 30 mM imidazole. His-tagged PK isoforms were eluted with the same buffer containing 300 mM imidazole. The proteins were dialyzed overnight at 4° C. against 2000 volumes of ice-cold 30 mM Tris pH 7.5, 25 mM KCl, 5 mM MgCl2, 10% glycerol and 1 mM DTT to remove imidazole. All purification steps were done at 4° C.; enzymes were flash-frozen and stored at −70° C. Enzymatic activity of frozen protein preparations was stable for at least 10 months and up to 5 freeze/thaw cycles. Purity and physical integrity of proteins were assessed using SDS-polyacrylamide gel electrophoresis (SDS-PAGE) followed by coomassie blue staining. Protein concentration was estimated by Bradford assay (Bio-Rad Protein Assay™) using bovine serum albumin as a standard.
Candidate MRSA PK inhibitors were assayed for their ability to inhibit enzymatic activities of MRSA and human PKs. PK activity was determined using a continuous assay coupled to lactate dehydrogenase (LDH) in which the change in absorbance at 340 nm owing to oxidation of NADH was measured using a Benchmark Plus™ microplate spectrophotometer (Bio-Rad Laboratories, Hercules, Calif.). […] Reactions were initiated by the addition of 15 nM of one of the PK enzymes. PK activity proportional to the rate of change at 340 nm was expressed as specific activity (μmol/min/mg), which is defined as the amount of PK that catalyzes the formation of one micromole of either product per minute. Inhibitors were dissolved in DMSO with the final concentration of the solvent never exceeding 1% of the assay volume. IC50 values were calculated by curve fitting on a four-parameter dose-response model with variable slope using Graphpad Prism 5.0™ (GraphPad™ Software Inc., La Jolla, Calif.). In all studies, less than 10% of total PEP was exhausted during the reaction. Reactions were performed at 30° C. for up to 5 min. All values determined represent at least two measurements, in triplicate (Tables 1-6) or duplicate unless mentioned otherwise. […]

Structure (SMILES) | MIC (S. aureus (ATCC29213)) [µg/mL] | IC50 (MRSA Pyk) [µM]
CC(C)(C)OC(=O)COc1cc2[nH]c(-c3cc4ccc(Br)cc4[nH]3)cc2cc1Cl [Compound 186, tert-Butyl 2-((6′-bromo-5-chloro-1H,1′H-[2,2′-biindol]-6-yl)oxy)acetate] | > 64 | < 0.1
CC(=O)OCC(=O)Nc1c(CCc2ccc(Cl)cc2)[nH]c2cc(Br)ccc12 [Compound 97, 2-(6-Bromo-2-(4-chlorophenethyl)-1H-indol-3-ylamino)-2-oxoethyl Acetate] | – | > 1
COC(=O)[C@@H]1CN(CCNC(=O)c2c(-c3cc4cc(Cl)ccc4[nH]3)[nH]c3cc(Br)ccc23)CCN1 [Compound 227, Methyl (S)-4-(2-(6-bromo-5′-chloro-1H,1′H-[2,2′-biindole]-3-carboxamido)ethyl)piperazine-2-carboxylate] | > 64 | –
O=C(Nc1ccc(Cl)cc1)Nc1nc2cc(Cl)ccc2o1 [Compound 177, 1-(5-chlorobenzo[d]oxazol-2-yl)-3-(4-chlorophenyl)urea] | > 64 | –
O=C(NCCN1CCOCC1)c1c(/C=C/c2ccc(Cl)cc2)[nH]c2cc(Br)ccc12 [Compound 29, (E)-6-Bromo-2-(4-chlorostyryl)-N-(2-morpholinoethyl)-1H-indole-3-carboxamide] | – | > 1
O=C(Nc1ccccn1)Nc1nc2cc(Br)ccc2s1 [Compound 163, 1-(5-bromobenzo[d]thiazol-2-yl)-3-(pyridin-2-yl)urea] | > 64 | –
O=C(Nc1ccc(Cl)cc1)Nc1nc2cc(F)ccc2o1 [Compound 179, 1-(4-chlorophenyl)-3-(5-fluorobenzo[d]oxazol-2-yl)urea] | > 64 | –
O=C(Nc1nc2cc(Cl)ccc2o1)NC1CCCCC1 [Compound 178, 1-(5-chlorobenzo[d]oxazol-2-yl)-3-cyclohexylurea] | > 64 | –
O=C(NCCCO)c1c(-c2cc3cc(Cl)ccc3[nH]2)[nH]c2cc(Br)ccc12 [Compound 133, 6-Bromo-5′-chloro-N-(3-hydroxypropyl)-1H,1′H-[2,2′-biindole]-3-carboxamide] | – | < 0.1
CN(C)CCNC(=O)c1c(NCc2ccc(Cl)cc2)[nH]c2cc(Br)ccc12 [Compound 83, 6-bromo-2-(4-chlorobenzylamino)-N-(2-(dimethylamino)ethyl)-1H-indole-3-carboxamide] | – | > 1
COC(=O)[C@@H]1CN(CCNC(=O)c2c(-c3cc4cc(Cl)ccc4[nH]3)[nH]c3cc(Br)ccc23)CCN1C(=O)OCc1ccccc1 [Compound 226, 1-benzyl 2-methyl (S)-4-(2-(6-bromo-5′-chloro-1H,1′H-[2,2′-biindole]-3-carboxamido)ethyl)piperazine-1,2-dicarboxylate] | > 64 | –
O=C(Nc1ccc(Cl)cc1)Nc1nc2cc([N+](=O)[O-])ccc2s1 [Compound 167, 1-(4-chlorophenyl)-3-(5-nitrobenzo[d]thiazol-2-yl)urea] | > 64 | –
COc1ccc(CCc2[nH]c3cc(Br)ccc3c2CCO)nc1 [Compound 71, 2-(6-Bromo-2-(2-(5-methoxypyridin-2-yl)ethyl)-1H-indol-3-yl)ethanol] | – | > 1
OC(c1c(CCc2cc(Cl)cc(Cl)c2)[nH]c2cc(Br)ccc12)(C(F)(F)F)C(F)(F)F [Compound 15, 2-(6-Bromo-2-(3,5-dichlorophenethyl)-1H-indol-3-yl)-1,1,1,3,3,3-hexafluoropropan-2-ol] | 1 (≈ 1.87 µM) | –
COc1ccc2sc(NC(=O)Nc3ccc(Cl)cc3)nc2c1 [Compound 165, 1-(4-chlorophenyl)-3-(5-methoxybenzo[d]thiazol-2-yl)urea] | > 64 | –
O=C(NCc1cccnc1)c1c(/C=C/c2ccc(Cl)nc2)[nH]c2cc(Br)ccc12 [Compound 37, (E)-6-Bromo-2-(2-(6-chloropyridin-3-yl)vinyl)-N-(pyridin-3-ylmethyl)-1 H-indole-3-carboxamide] | – | 0.1 to 1
O=C(O)C1CNCCN1C(=O)c1c(-c2cc3cc(Cl)ccc3[nH]2)[nH]c2cc(Br)ccc12 (centres unmarked) [Compound 225, 1-(6-bromo-5′-chloro-1H,1′H-[2,2′-biindole]-3-carbonyl)piperazine-2-carboxylic Acid] | > 64 | –

Further lines, with some results ahead:

MIC (S. aureus (ATCC29213)) [µg/mL] | Structure (SMILES) | IC50 (MRSA Pyk) [µM]
> 64 | O=C(Nc1ccc(Cl)cc1)Nc1nc2ccccc2s1 [Compound 162, 1-(benzo[d]thiazol-2-yl)-3-(4-chlorophenyl)urea] | –
> 64 | NC(=O)N1CCN(CCNC(=O)c2c(-c3cc4cc(Cl)ccc4[nH]3)[nH]c3cc(Br)ccc23)CC1 [Compound 132, 6-bromo-N-(2-(4-carbamoylpiperazin-1-yl)ethyl)-5′-chloro-1H,1′H-2,2′-biindole-3-carboxamide] | –
> 64 | CS(=O)(=O)NC(=O)CNC(=O)c1c(-c2cc3cc(Cl)ccc3[nH]2)[nH]c2cc(Br)ccc12 [Compound 151, 6-bromo-5′-chloro-N-(2-(methylsulfonamido)-2-oxoethyl)-1H,1′H-[2,2′-biindole]-3-carboxamide] | –
> 64 | O=C(NCCN1CCN(C(=O)COCC(=O)N2CCN(CCNC(=O)c3c(/C=C/c4ccc(Cl)cc4)[nH]c4cc(Br)ccc34)CC2)CC1)c1c(/C=C/c2ccc(Cl)cc2)[nH]c2cc(Br)ccc12 [Compound 56, (E)-N,N′-((4,4′-(2,2′-oxybis(acetyl))bis(piperazine-4,1-diyl))bis(ethane-2,1-diyl))bis(6-bromo-2-((E)-4-chlorostyryl)-1H-indole-3-carboxamide)] | –
> 64 | O=C(Nc1nc2cc(F)ccc2o1)NC1CCCCC1 [Compound 180, 1-cyclohexyl-3-(5-fluorobenzo[d]oxazol-2-yl)urea] | –
> 64 | O=C(Nc1ccc(Cl)cc1)Nc1nc2ccccc2o1 [Compound 164, 1-(benzo[d]oxazol-2-yl)-3-(4-chlorophenyl)urea] | –
64 (≈ 164 µM) | CNC(=O)c1c(/C=C/c2ccc(Cl)cc2)[nH]c2cc(Br)ccc12 [Compound 20, (E)-6-Bromo-2-(4-chlorostyryl)-N-methyl-1H-indole-3-carboxamide] | –
> 64 | CCOC(=O)c1ccc2sc(NC(=O)Nc3ccc(Cl)cc3)nc2c1 [Compound 171, ethyl 2-(3-(4-chlorophenyl)ureido)benzo[d]thiazole-5-carboxylate] | –
